{"source": "patent US9457045B2", "about": "“Combination of anti-clusterin oligonucleotide with Hsp90 inhibitor for the treatment of prostate cancer” (The University of British Columbia, priority 2011, dated 2016)", "key": {"HSF-1": {"system": "HSF-1", "experiment": "HSE-luciferase assay of HSF-1 activity", "assay_type": "cell-based, human", "procedure": "FIG. 3. CLU induction following Hsp90 inhibitor treatment is cytoprotective via an increase of HSF-1 activity. A, LNCaP cells were treated with indicated concentrations of Hsp90i-1 or Hsp90i-2 for 48 h. B, LNCaP cells were transiently transfected with indicated concentrations of CLU-plasmid for 48 h. Total amount of plasmid DNA transfected was normalized to 2 μg per well by the addition of an empty vector. C (Top), LNCaP cells were transfected with 20 nM CLU siRNA or control siScr, followed of Hsp90i-1 or Hsp90i-2 treatment (1 μM) for 48 h. C (bottom), LNCaP cells were treated twice with 300 nM custirsen or control ScrB ASO. D, LNCaP and PC-3 cells were treated twice with 300 nM custirsen or control ScrB ASO, followed by 1 μM of Hsp90i-1 or Hsp90i-2 for 48 h. Cells were harvested, and HSE-luciferase activity or western blotting analyses were performed. Means of at least three independent experiments done in triplicate. ***, p<0.001; *, p<0.05; ns, not significant.\nLNCaP and C4-2 cells (2.5×10^5) were plated on six-plates and transfected using lipofectin (6 μL per well; Invitrogen Life Technologies, Inc.). The total amount HSE plasmids DNA used were normalized to 1 μg per well by the addition of a control plasmid. One μM HSP90i-2 or Hsp90i-1 was added 4 h after the transfection and for 48 h. HSE-luciferase activity was measured using Dual-Luciferase Reporter Assay System (Promega) with the aid of a microplate luminometer (EG&G Berthold). All experiments were carried out in triplicate wells and repeated 3 times using different preparations of plasmids."}, "CLU [1]": {"system": "CLU", "conditions": "Phase II studies (Chi et al., 2005); cited from earlier work"}, "LNCaP cells": {"system": "LNCaP cells", "experiment": "Apoptosis assays: propidium iodide flow cytometry (subG1) and western blotting", "assay_type": "cell-based, human", "conditions": "300 nM custirsen or ScrB twice, then 1 μM Hsp90 inhibitor", "procedure": "FIG. 4. Increased potency of CLU knockdown and Hsp90 inhibitor combination treatment in PCa cells. A, LNCaP cells were treated twice with 300 nM custirsen or control ScrB ASO, followed by the indicated concentration of Hsp90i-1 or Hsp90i-2 for 48 h. Cell growth was determined by crystal violet and compared with control. B, dose dependent effects and combination index (CI) values calculated by CalcuSyn software were assessed in LNCap cells treated for 48 h with custirsen alone, Hsp90i-2 alone or combined treatment at indicated concentration with constant ratio design between both drugs. […] C and D, LNCaP cells were treated twice with 300 nM custirsen or control ScrB, followed by 1 μM Hsp90i-1 or Hsp90i-2 for 48 h. […] The proportion of cells in subG1, G0-G1, S, G2-M was determined by propidium iodide staining and caspase-3 activity was determined on the cell lysates and the results are expressed in arbitrary units and corrected for protein content (D). […]\nProstate cells lines were plated in appropriate media (DMEM or RPMI) with 5% FBS and treated with Hsp90i-2-PRO or Hsp90i-1 at indicated concentration and time and cell growth was measured using the crystal violet assay as described previously (Leung et al., 2000). Detection and quantitation of apoptotic cells were done by flow-cytometry (described below) and western blotting analysis. […]"}, "[2]": {"conditions": "60 mg/kg/day (Glaze et al., 2005); cited from earlier work"}, "[3]": {"system": "castrate resistant LNCaP tumors", "experiment": "Castrate resistant LNCaP xenograft model", "assay_type": "in vivo", "conditions": "for tumor volume: Hsp90i-2-PRO 25 mg/kg oral, ASO 15 mg/kg i.p.", "procedure": "FIG. 6. […] Mice were treated with 25 mg/kg Hsp90i-2-PRO and 15 mg/kg custirsen starting when serum PSA values relapsed to pre-castration levels. […] Progression-free survival was defined as time for the first tumor volume doubling.\nFIG. 7. […] A, tumors were collected after 57 days and CLU, Ki67, AR, AKT and TUNEL were evaluated by immunohistochemical analysis (original magnification: ×200). B, total proteins were extracted from the xenograft tumors and CLU, AR, Akt and PSA were analyzed by western blotting. The relative levels were normalized with vinculin and estimated in densitometric units±SEM.\n(§1) Male athymic nude mice (Harlan Sprague-Dawley, Inc.) were injected s.c. with 2×10^6 LNCaP cells (suspended in 0.1 mL Matrigel; BD Biosciences). The mice were castrated once tumors reach between 300 and 500 mm^3 or the PSA level increased above 50 ng/mL. Once tumors progressed to castrate resistance, mice were randomly assigned to vehicle, Hsp90i-2-PRO alone, Hsp90i-2-PRO+ScrB ASO or Hsp90i-2-PRO+custirsen. Hsp90i-2-PRO (Prodrug, 25 mg/kg; formulation in 0.5% CMC+0.5% Tween-80) is orally administered three times per week and custirsen or ScrB ASO (15 mg/kg) was injected intra-peritoneally once daily for the first week and then three times per week. Each experimental group consisted of 10 mice. Tumor volume was measured twice weekly (length×width×depth×0.5432). Serum PSA was determined weekly by enzymatic immunoassay (Abbott IMX, Montreal, Quebec, Canada). PSA doubling time (PSAdt) and velocity were calculated by the log-slope method (PSAt=PSAinitial×emt). Data points were expressed as average tumor volume±SEM or average PSA concentration±SEM.\nWhen tumor volume reached 10% of body weight, mice were sacrificed and tumors harvested for evaluation of protein expression by western blotting analyses and immunohistochemistry. All animal procedures were performed according to the guidelines of the Canadian Council on Animal Care and appropriate institutional certification.\nImmunohistochemical stains were performed on formalin-fixed and paraffin-embedded 4 μm sections of tumor samples using adequate primary antibody, and the Ventana autostainer Discover XT (Ventana Medical System) with enzyme labeled biotin streptavidin system and solvent resistant 3,3′-diaminobenyidine Map kit. All comparisons of staining intensities were made at 200× magnifications."}, "[4]": {"experiment": "Toxicity of Hsp90 inhibitor monotherapy", "assay_type": "in vivo", "conditions": "50 mg/kg/day"}, "Hsp70": {"system": "Hsp70", "experiment": "Hsp70 expression in CRPC LNCaP xenografts (immunohistochemistry)", "assay_type": "in vivo, mice", "conditions": "50 mg/kg Hsp90i-2-PRO for 6 weeks", "procedure": "(§2) FIG. 2. Hsp90i-2 induces HSP and CLU expression in PCa xenografts. Mice were treated for 6 weeks with 50 mg/kg Hsp90i-2-PRO (the prodrug of Hsp90i-2) or vehicle (Control). A, tumors were collected and CLU and Hsp70 were evaluated by immunohistochemical analysis. B, total proteins were extracted from the xenograft tumors and CLU expression was analyzed by western blotting. The relative levels were normalized with GAPDH and estimated in densitometric units. ***, p<0.001.\nas §1, with “Hsp90i-2-PRO (Prodrug, 25 mg/kg; formulation in 0.5% CMC+0.5% Tween-80) is orally administered three times per week and custirsen or ScrB ASO (15 mg/kg) was injected intra-peritoneally once daily for the first week and then three times per week. Each experimental group consisted of 10 mice.” left out, “concentration±SEM. […]” for “concentration±SEM.”"}, "CLU [5]": {"system": "CLU", "experiment": "CLU expression in CRPC LNCaP xenografts (immunohistochemistry and western blot)", "assay_type": "in vivo, mice", "conditions": "50 mg/kg Hsp90i-2-PRO for 6 weeks", "procedure": "as §2\nas §1, with “Hsp90i-2-PRO (Prodrug, 25 mg/kg; formulation in 0.5% CMC+0.5% Tween-80) is orally administered three times per week and custirsen or ScrB ASO (15 mg/kg) was injected intra-peritoneally once daily for the first week and then three times per week. Each experimental group consisted of 10 mice.” left out, “concentration±SEM. […]” for “concentration±SEM.”"}, "[6]": {"system": "castrate resistant LNCaP tumors", "conditions": "50 mg/kg monotherapy, previous study (Lamoureux et al., 2011); cited from earlier work"}, "[7]": {"conditions": "LNCaP cells, Hsp90 inhibitor at indicated concentrations 48 h, dose-dependent"}}, "note": "Like-named read-outs stand apart in the source and are kept apart here. In the oligonucleotide strings, read from the 5' end, every base follows the letter of its sugar. An asterisk marks phosphorothioate; unmarked linkages are phosphodiester. Other units and linkages are bracketed, terminal groups are in braces. A string of capitals states the bases alone. e = 2'-O-(2-methoxyethyl) (MOE); [5mC] = 5-methylcytosine; d = 2'-deoxy (DNA)", "data": [{"compound": "custirsen: antisense oligonucleotide reducing clusterin expression, CAGCAGCAGAGTCTTCATCAT (SEQ ID NO: 3), phosphorothioate backbone, 2′-O-methoxyethyl wings (antisense e[5mC]*eA*eG*e[5mC]*dA*dG*dC*dA*dG*dA*dG*dT*dC*dT*dT*dC*dA*eT*e[5mC]*eA*eT; listed as Homo sapiens)", "values": [{"measurement": "HSF-1 activity", "setting": "HSF-1; LNCaP cells treated twice with 300 nM custirsen vs control ScrB ASO", "result": "significantly decreased"}, {"measurement": "inhibition of CLU in human prostate cancer tissues", "setting": "CLU [1]", "result": "> 90", "unit": "%"}, {"measurement": "apoptotic rates (subG1 fraction)", "setting": "LNCaP cells", "result": 17.4, "unit": "%"}]}, {"compound": "C=CCNC1=C2C[C@@H](C)C[C@H](OC)[C@H](O)[C@@H](C)/C=C(\\C)[C@H](OC(N)=O)[C@@H](OC)/C=C\\C=C(/C)C(=O)NC(=CC1=O)C2=O", "note": "[Hsp90i-1, 17-allylamino-17-demethoxygeldanamycin]", "values": [{"measurement": "HSF-1 activity", "setting": "HSF-1; [7]", "result": "significantly induced"}, {"measurement": "toxicity as monotherapy", "setting": "[2]", "result": "hepatotoxicity"}]}, {"compound": "CC1(C)CC(=O)c2c(C(F)(F)F)nn(-c3ccc(C(N)=O)c(NC4CCC(O)CC4)c3)c2C1", "note": "(centres unmarked) [Hsp90i-2, 4-(6,6-Dimethyl-4-oxo-3-trifluoromethyl-4,5,6,7-tetrahydro-indazol-1-yl)-2-(4-hydroxy-cyclohexylamino)-benzamide]", "values": [{"measurement": "HSF-1 activity", "setting": "HSF-1; [7]", "result": "significantly induced"}]}, {"compound": "control ScrB ASO: scrambled control oligonucleotide with 2′-O-(2-methoxy)ethyl modification, 5′-CAGCGCTGACAACAGTTTCAT-3′ (SEQ ID NO: 44) (2'-O-methoxyethyl modified, pattern not given here)", "values": [{"measurement": "apoptotic rates (subG1 fraction)", "setting": "LNCaP cells", "result": 4.2, "unit": "%"}]}, {"compound": "CC1(C)CC(=O)c2c(C(F)(F)F)nn(-c3ccc(C(N)=O)c(NC4CCC(OC(=O)CN)CC4)c3)c2C1", "note": "(centres unmarked) [Hsp90i-2-PRO]", "values": [{"measurement": "tumor volume", "setting": "[3]; 7 weeks post treatment", "result": 2483.6, "unit": "mm^3"}, {"measurement": "tumor volume", "setting": "[3]; at 10 days", "result": 646.4, "unit": "mm^3"}, {"measurement": "overall survival", "setting": "[3]; by day 57", "result": "all mice died or were euthanized"}, {"measurement": "mean PSA level", "setting": "[3]; serum, after 42 days", "result": 527, "unit": "ng/mL"}, {"measurement": "tumor volume / tumor progression", "setting": "[3]; sub-therapeutic dose of 25 mg/kg/day HSP90i-2-PRO", "result": "marginal, non-significant decreases"}, {"measurement": "effect on serum PSA levels", "setting": "[3]; sub-therapeutic dose of 25 mg/kg/day, monotherapy", "result": "no effect"}, {"measurement": "toxicity as monotherapy", "setting": "[4]", "result": "body weight loss"}, {"measurement": "Hsp70 increase compared with vehicle treated tumor", "setting": "Hsp70", "result": 2.3, "unit": "fold"}, {"measurement": "CLU expression increase compared with vehicle treated tumor", "setting": "CLU [5]", "result": 4, "unit": "fold"}, {"measurement": "LNCaP CRPC tumor progression", "setting": "[6]", "result": "inhibited"}]}]}
